Measurements from patent US11286258B2, “Nature-inspired anticancer and antibacterial motifs and pharmaceutical composition thereof” (University of Sharjah, priority 2020, dated 2022).
Converted amounts (≈) assume the structure as drawn.

Key:
[1] = test system: Acinetobacter baumannii ATCC 19606; assay: MIC broth microdilution, A. baumannii ATCC 19606; format: cell-based; settings: Acinetobacter baumannii, ATCC19606; not MDR; overnight incubation
Experimental: (§1) Antibacterial activity: The compounds were tested for the minimum inhibitory concentrations (MIC), which is the lowest concentration of a chemical required to inhibit visible microbial growth following overnight incubation. MIC values were determined using broth microdilution method according to the Clinical and Laboratory Standards Institute guidelines (CLSI, 2015, M07-A10). Mueller-Hinton broth was used as a culture medium in all the experiments. Exponentially growing bacterial cells were prepared in Mueller-Hinton broth at a concentration of approximately 5×10^5 CFU/mL. Two-fold serial dilutions of the test compound (8 concentrations ranged between 100-0.78 μg/mL) were tested. […] In each experiment, solvent (DMSO) was used as a negative control, un-treated control (composing of bacteria in Mueller-Hinton broth) was used as a growth control, blank (culture media alone) was used as sterility control. The 96-well microplate with the test compounds was incubated overnight at 37° C. Turbidity in wells indicated bacterial growth.
(§2) The compounds were tested on six MDR Gram-positive bacteria including three clinical isolates of methicillin-resistant Staphylococcus aureus (MRSA-1, MRSA-2 and MRSA-3) and three reference MRSA strains (ATCC33591, ATCC33592 and ATCC700699). They were also tested on three MDR Gram-negative bacteria including New Delhi metallo-beta-lactamase (NDM-1) positive, carbapenem-resistant E. coli (ATCC BAA2469), extended-spectrum beta-lactamase (ESBL) producing, colistin-resistant E. coli (CDC-AR-0346) and carbapenem-resistant Acinetobacter baumannii (ATCC BAA1605), in addition to two non-MDR bacteria from the same species, namely E. coli (ATCC 25922) Acinetobacter baumannii (ATCC 19606).

[2] = test system: MRSA-ATCC700699 (VISA); assay: MIC broth microdilution, MRSA ATCC700699 (VISA); format: cell-based, Staphylococcus aureus; settings: for MIC: Staphylococcus aureus, strain intermediately resistant to vancomycin, overnight incubation, read-out: MIC MRSA-ATCC700699 (VISA)
Experimental: as §1, §2

[3] = test system: MRSA-1 (clinical isolate); assay: MIC broth microdilution, MRSA-1; format: cell-based, Staphylococcus aureus; settings: Staphylococcus aureus, MRSA; overnight incubation, Mueller-Hinton broth; read-out: MIC MRSA-1 (clinical isolate)
Experimental: as §1, §2

[4] = test system: MRSA-ATCC33591; assay: MIC broth microdilution, MRSA ATCC33591; format: cell-based, Staphylococcus aureus; settings: Staphylococcus aureus; overnight incubation, Mueller-Hinton broth; read-out: MIC MRSA-ATCC33591
Experimental: as §1, §2

[5] = test system: E. coli ATCC BAA2469 (NDM-1 carbapenem-resistant); assay: MIC broth microdilution, E. coli ATCC BAA2469; format: cell-based, Escherichia coli; settings: overnight incubation; for MIC: Escherichia coli, ATCCBAA2469, MDR
Experimental: as §1, §2

[6] = test system: MRSA-2 (clinical isolate); assay: MIC broth microdilution, MRSA-2; format: cell-based, Staphylococcus aureus; settings: Staphylococcus aureus, MRSA; overnight incubation, Mueller-Hinton broth; read-out: MIC MRSA-2 (clinical isolate)
Experimental: as §1, §2

[7] = test system: MRSA-3 (clinical isolate); assay: MIC broth microdilution, MRSA-3; format: cell-based, Staphylococcus aureus; settings: Staphylococcus aureus, MRSA; overnight incubation, Mueller-Hinton broth; read-out: MIC MRSA-3 (clinical isolate)
Experimental: as §1, §2

[8] = test system: MRSA-ATCC33592; assay: MIC broth microdilution, MRSA ATCC33592; format: cell-based, Staphylococcus aureus; settings: Staphylococcus aureus; overnight incubation, Mueller-Hinton broth; read-out: MIC MRSA-ATCC33592
Experimental: as §1, §2

[9] = test system: E. coli ATCC25922; assay: MIC broth microdilution, E. coli ATCC25922; format: cell-based, Escherichia coli; settings: Escherichia coli, ATCC25922; not MDR; overnight incubation
Experimental: as §1, §2

[10] = test system: 6 MRSA strains; assay: MIC, panel of 6 MRSA strains; format: cell-based; settings: Staphylococcus aureus, across the panel of tested Gram-positive strains, read-out: MIC against all the 6 MRSA strains
Experimental: as §1, §2

[11] = test system: MDR E. coli strains; assay: MIC, both MDR E. coli strains; format: cell-based; settings: Escherichia coli, ATCCBAA2469; across ATCC BAA2469 and CDC-AR-0346
Experimental: as §1
The compounds were tested on six MDR Gram-positive bacteria including three clinical isolates of methicillin-resistant Staphylococcus aureus (MRSA-1, MRSA-2 and MRSA-3) and three reference MRSA strains (ATCC33591, ATCC33592 and ATCC700699). […]

[12] = test system: Acinetobacter baumannii ATCC BAA1605 (carbapenem-resistant); assay: MIC broth microdilution, A. baumannii ATCC BAA1605; format: cell-based; settings: for MIC: Acinetobacter baumannii, ATCCBAA1605, MDR, overnight incubation
Experimental: as §1, §2

[13] = test system: E. coli CDC-AR-0346 (ESBL, colistin resistant); assay: MIC broth microdilution, E. coli CDC-AR-0346; format: cell-based, Escherichia coli; settings: for MIC: Escherichia coli, MDR, overnight incubation
Experimental: as §1, §2

[14] = test system: HELA; assay: MTT cell viability, HELA; format: cell-based; settings: Homo sapiens, cervical cancer, 48 h of drug treatment, average of three experiments
Source text: (§3) Cell culture: In this study five different cancer cell lines were used, human lung carcinoma (A549), human breast adenoma (MCF-7), Cervical carcinoma (Hela), hepatocellular carcinoma (Hep3B), and colorectal adenocarcinoma (HCT-116). These cells were obtained from the European Collection of Cell Cultures (ECACC, UK). Hep3B cells were maintained in Dulbecco's Modified Eagle Medium (DMEM: Sigma-Aldrich), and the four other cell lines were maintained in Roswell Park Memorial Institute medium (RPMI, Sigma-Aldrich, St. Louis, Mo., USA), which was supplemented with 10% fetal bovine serum (FBS, Sigma-Aldrich) and 1% penicillin/streptomycin (Sigma-Aldrich). Cells were incubated all the time at 37° C. in a humidified atmosphere of 5% CO2. Cell viability studies: Cell viability was assessed using the MTT assay as described before. In brief, all cancer cell lines were seeded at a density of 4×10^4/well in 96 well flat-bottom plates. After 24 h from seeding, cells were treated with the synthesized compounds and left for an incubation period of 48 h. Upon reaching the indicated time point, the media was removed and replaced with 200 μL fresh media containing 0.5 mg/mL of MTT tetrazolium dye (Sigma-Aldrich). Cells were then incubated with MTT solution for 2 h at 37° C. The resultant formazan crystals were dissolved in 200 μl/well of DMSO and absorbance was measured at 570 nm using a microplate reader (Thermo Scientific).

[15] = test system: HEP3B; assay: MTT cell viability, HEP3B; format: cell-based; settings: Homo sapiens, liver cancer, 48 h of drug treatment, average of three experiments
Source text: as §3

[16] = test system: A549; assay: MTT cell viability, A549; format: cell-based; settings: Homo sapiens, lung cancer, 48 h of drug treatment, average of three experiments
Source text: as §3

[17] = test system: HCT-116; assay: MTT cell viability, HCT-116; format: cell-based; settings: Homo sapiens, colon cancer, 48 h of drug treatment, average of three experiments
Source text: as §3

[18] = test system: MCF-7; assay: MTT cell viability, MCF-7; format: cell-based; settings: Homo sapiens, MCF7; breast cancer; 48 h of drug treatment; average of three experiments
Source text: as §3

| Compound | MIC [1] | MIC [2] | MIC [3] | MIC [4] | MIC [5] | MIC [6] | MIC [7] | MIC [8] | MIC [9] | MIC [10] | MIC [12] | MIC [13] | other results |
| --- | --- | --- | --- | --- | --- | --- | --- | --- | --- | --- | --- | --- | --- |
| NCC[C@H](O)C(=O)N[C@@H]1C[C@H](N)[C@@H](O[C@H]2O[C@H](CN)[C@@H](O)[C@H](O)[C@H]2O)[C@H](O)[C@H]1O[C@H]1O[C@H](CO)[C@@H](O)[C@H](N)[C@H]1O [Amikacin, reference compound] | 10 µg/mL (≈ 17.1 µM) | 100 µg/mL (≈ 171 µM) | 16 µg/mL (≈ 27.3 µM) | 50 µg/mL (≈ 85.4 µM) | > 1000 µg/mL | 8 µg/mL (≈ 13.7 µM) | 2 µg/mL (≈ 3.42 µM) | 50 µg/mL (≈ 85.4 µM) | 2.5 µg/mL (≈ 4.27 µM) | 2 to 100 µg/mL (≈ 3.42 to 171 µM) | 1.25 µg/mL (≈ 2.13 µM) | > 1000 µg/mL | MIC [11]: > 1000 µg/mL |
| Fc1ccc2c3c4n(c2c1)[C@@]1(C=C/C(=N\Nc2ccc(C(F)(F)F)cc2)CC1)CC[C@@H]4NCC3 [Compound 1g] | 6.25 µg/mL (≈ 13.3 µM) | 1.56 µg/mL (≈ 3.33 µM) | 1.56 µg/mL (≈ 3.33 µM) | 1.56 µg/mL (≈ 3.33 µM) | 6.25 to 12.5 µg/mL (≈ 13.3 to 26.7 µM) | 1.56 µg/mL (≈ 3.33 µM) | 1.56 µg/mL (≈ 3.33 µM) | 1.56 µg/mL (≈ 3.33 µM) | 6.25 µg/mL (≈ 13.3 µM) | 1.56 µg/mL (≈ 3.33 µM) | 6.25 µg/mL (≈ 13.3 µM) | 12.5 µg/mL (≈ 26.7 µM) | MIC times less than the MIC of vancomycin ([2]; VISA strain ATCC 700699, vancomycin 8 μg/mL): ~5 times; IC50 [14]: 4.625 ± 0.04 µM; MIC E. coli ATCC BAA2469 (NDM-1 carbapenem-resistant) ([5]; MDR): 6.25 µg/mL (≈ 13.3 µM); IC50 [15]: 3.597 ± 0.03 µM; IC50 [16]: 7.44 ± 0.04 µM; IC50 [17]: 3.02 ± 1.2 µM; MIC fold below that of meropenem ([12]; Acinetobacter baumannii ATCC BAA1605, meropenem 12.5 μg/mL): 2 fold; IC50 [18]: 5.34 ± 1.8 µM; MIC fold higher than that of colistin ([13]; E. coli CDC-AR-0346, colistin 6.25 μg/mL): 2 fold |
